Reference: paper PMC10610545, “Preclinical Evaluation of an Imidazole-Linked Heterocycle for Alzheimer’s Disease” (Pharmaceutics, 2023)

What was measured:
[1] = PAMPA-BBB permeation assay; assay type: in vitro ADME, porcine; conditions: pig, PBS/EtOH (70:30), mean ± SD, read-out: Permeability Pe
Procedure: In vitro Blood-Brain Barrier Permeation Assay
To evaluate the brain penetration of the different compounds, a parallel artificial membrane permeation assay for blood-brain barrier was used, following the method described by Di et al.1 The in vitro permeability (Pe) of fourteen commercial drugs (see Table S1) through lipid extract of porcine brain membrane together with the test compounds were determined. Commercial drugs and assayed compounds were tested using a mixture of PBS:ETOH (70:30). Assay validation was made by comparing the experimental permeability with the reported values of the commercial drugs by bibliography and lineal correlation between experimental and reported permeability of the fourteen commercial drugs using the parallel artificial membrane permeation […]
From this equation and taking into account the limits established by Di et al. for BBB permeation, we established the ranges of permeability […]
predictive penetration in the CNS used as references.
1 Di, L.; Kerns, E. H.; Fan, K.; McConnell, O. J.; and Carter, G. T. High throughput artificial membrane permeability assay for blood-brain barrier.

[2] = test system: human dopaminergic cell line SH-SY5Y; experiment: Cytotoxicity of compounds alone, MTT assay, SH-SY5Y; assay type: cell-based; conditions: 24 h, escalating concentrations
Procedure: In the study of neurotoxicity associated with AD, the HT22 mouse hippocampal neuronal cell line has been recognized as an effective cell model. HT22 cells were purchased from Merck-Sigma-Aldrich (SCC12, Madrid, Spain) and cultured in DMEM-F12 (Gibco, Fisher Scientific, Madrid, Spain) supplemented with foetal bovine serum (FBS, 10%) and 1% penicillin/streptomycin under standard conditions (37 °C, 5% CO2). The human dopaminergic cell line SH-SY5Y, in turn, has been widely used as an in vitro model to study the pathogenesis of PD associated with dopaminergic degeneration. Cells, acquired from the American Type Culture Collection (ATCC, Rockville, MD, USA, Ref.CRL-2266), were grown in RPMI medium (Gibco) supplemented with glutamine (2 mM), 10% FBS, and 1% penicillin/streptomycin under standard conditions. Semiconfluent cells (90%) were seeded on 96-well plates at 3 × 10^4 per well and incubated for 24 h before treatment.
Neuronal cultures, HT-22 and SH-SY5Y, seeded on 96-well plates were treated with LSL33, LSL34, and LSL60101 for 24 h, and viability was assessed using the MTT assay. […] Then, cultures were treated for 1h with LSL33 at 2 μM and LSL34 and LSL60101 at 1 μM. This dose was chosen based on previous studies. Subsequently, HT-22 cultures were exposed to glutamate (10 mM, Merck-Sigma), while SH-SY5Y cultures received 6-hydroxydopamine (6-OHDA, 35 μM, Merck-Sigma). The cells were then incubated for a minimum of 16 h. Finally, the cellular viability and nitrite production of the cultures were assessed.
The assessment of cell viability was conducted using the 3-(4,5-dimethylthiazol-2-yl)-5-(3-carboxymethoxyphenyl)-2-(4-sulfophenyl)-2H-tetrazolium (MTT) assay, following the instructions provided by the manufacturer (Roche Diagnostic, Darmstadt, Germany). […] The absorbance of the solution was measured at 595–650 nm using a spectrophotometer. The experiments were performed at least three times, and the results were expressed as a percentage of the control. […]

[3] = test system: glial cells: BV2 (microglia), C6 (astroglia), primary microglial and astroglial cultures; experiment: LPS-induced nitrite production in glial cultures (Griess); assay type: cell-based, mouse, rat; conditions: LPS 10 μg/mL, 24 h, ligands at 1 μM
Procedure: PD has been described in the same way. Therefore, we based our in vitro model of neuroinflammation on the use of two established glial cell lines, C6 and BV2, as well as primary glial cultures derived from the mouse cerebral cortex. […] When attaining semiconfluence, glial cells were seeded on 96-well plates at 3 × 10^4/well and incubated for 24 h before treatment. Primary astrocytes and microglia were obtained and cultured following a previously described protocol. In brief, the cerebral cortex was dissected, dissociated, and incubated with 0.25% trypsin and EDTA at 37 °C for 1 h. The tissue was then centrifuged, and the resulting pellet was washed with Hanks’ balanced salt solution (Invitrogen). The cells were plated on non-coated flasks and incubated under standard conditions for a minimum of 7 days. Subsequently, each type of glial cell was isolated to obtain pure cultures. To achieve this, the glial cells in the culture flasks were agitated on an orbital shaker for 4 h at 240 rpm and 37 °C. […]
To determine the inflammatory state, glial cells subcultured in 96-well plates were exposed to lipopolysaccharide (LPS, 10 μg/mL, Sigma). […] After 24 h in culture, nitrite production was evaluated.
Following the designated treatments, 100 μL of the cell culture supernatant was mixed with an equal volume of Griess reagent (consisting of 1% sulfanylamide and 0.1% naphthyl ethylene diamine in 5% phosphoric acid, sourced from Sigma-Aldrich, Madrid, Spain) at room temperature for 15 min. […] The absorbance of the mixture was measured at 492/540 nm using a microplate reader from Thermofisher (Madrid, Spain). […]
Figure 5 Role of I2-IR ligands in an in vitro model of neuroinflammation. Nitrite production in the supernatant of glial cells was assessed using the Griess reaction after a 24 h exposure to lipopolysaccharide (LPS, 10 μg/mL) in the presence of the indicated I2-IR ligands at a concentration of 1 μM. […]

Papp [1] | Compound | cytotoxicity (MTT viability) [2] | nitrite levels [3]
13.6 ± 0.4 ×10⁻⁶ cm/s | c1ccc2oc(-c3ncc[nH]3)cc2c1 [LSL60101, reference compound] | None of the compounds tested were cytotoxic | notable reduction in nitrite levels
14.1 ± 0.5 ×10⁻⁶ cm/s | Cl.c1ccc2oc(-n3ccnc3)cc2c1 [LSL34, 1-(Benzofuran-2-yl)-1H-imidazole hydrochloride] | None of the compounds tested were cytotoxic | notable reduction in nitrite levels

Compound | Papp [1] | cytotoxicity (MTT viability) [2] | nitrite levels [3]
Cl.c1ccc2sc(-c3ncc[nH]3)cc2c1 [LSL33, 2-(Benzo[b]thiophene-2-yl)-1H-imidazole hydrochloride] | 8.1 ± 0.4 ×10⁻⁶ cm/s | None of the compounds tested were cytotoxic | notable reduction in nitrite levels
